Measured values from US6365622B1 (Sigma-Tau HealthScience S.p.A., priority 1998, dated 2002).

What was measured:
[1] = Toxicological tests: high single doses, parenteral and oral; type: in vivo; settings: rats and mice
[2] = test system: cerebral ischaemia induced by occluding the middle cerebral artery (MCA); assay: Neuroprotective activity in experimental cerebral ischaemia (endothelin-1 occlusion of the MCA); type: in vivo; settings: rat, i.v. 5 minutes after endothelin; acetyl L-carnitine 50 mg/kg, carnitine mixture 50 mg/kg, α-lipoic acid 20 mg/kg; read three days later
Experimental: Occlusion of the artery is induced, and the resulting ischaemia can be checked three days after this procedure by transcardiac perfusion of a solution of paraformaldehyde (4% in PBS).
After removing the brain, it was placed in fixative containing 10% sucrose, and cryostatic sections ([…]) fixed with cresyl violet were examined under the optical microscope.
The volume of the infarcted area was calculated according to the method described by Park (Park C. K., Anns. Neurol., 20-150, 1989).

[3] = test system: alloxan-induced hyperglycaemia; assay: Experimental diabetic hyperglycaemia test (alloxan); type: in vivo; settings: alloxan hyperglycaemic rat; for Serum glucose, Initial: before treatment; for Serum glucose, After 21 days: oral for three weeks, acetyl L-carnitine 200 mg/kg, α-lipoic acid 50 mg/kg
Experimental: Controlling serum glucose is therefore one of the most important means of preventing diseases related to diabetes. […] The hyperglycaemia was induced by subcutaneous injection of alloxan (100 mg/kg) in the rat, and those rats were considered hyperglycaemia which presented serum glucose levels above 450 mg/dl seven days after the alloxan injection.
Treatment with the test substances was given orally for a period of three weeks. At the end of this period, serum glucose was measured in the various groups of rats, both hyperglycaemic and treated.

[4] = test system: sorbitol in ocular lens and sciatic nerve of diabetic rats; assay: Sorbitol content in ocular lens and sciatic nerve in the diabetic rat (streptozotocin); type: in vivo; settings: i.p. eight days, acetyl L-carnitine 100 mg/kg, carnitine mixture 100 mg/kg, α-lipoic acid 25 mg/kg
Experimental: These tests were conducted in a group of rats in which diabetes was induced by means of the intravenous administration of 50 mg/kg of streptozotocin. One week after injection, serum glucose was tested and those rats were considered diabetic which presented serum glucose values above 450 mg/dl. These animals then received intraperitoneal injections, for eight consecutive days, of acetyl L-carnitine (100 mg/kg), or carnitine mixture (acetyl L-carnitine+propionyl L-carnitine+isovaleryl L-carnitine in a […] weight ratio to one another) (100 mg/kg), or (x-lipoic acid (25 mg/kg), either alone or in various combinations.
After eight days of treatment, after suitable isolation, the sorbitol concentration present in both the sciatic nerve and the ocular lens of diabetic rats was measured before and after the treatment administered.

[5] = test system: brain cells of Wistar rats; assay: Survival and growth of isolated brain cells treated with IGF-I, carnitines and α-lipoic acid; type: cell-based; settings: 24 hours after addition; IGF-I 25 ng/ml, acetyl L-carnitine 100 ng/ml, carnitine mixture 100 ng/ml
Experimental: To this end, brain cells of Wistar rats were isolated according to the method described by Thanguipon (Thanguipon W., Dev. Brain Res., 11, 177, 1983) and were distributed on plates with a density of 3×10^5/cm^2. To the culture medium was added cytosine arabino-furanoside ([…]) to prevent the replication of non-neuronal cells. After eight days, the cells were washed and maintained in a culture in which the serum was replaced with BME (Basal Eagles Medium, Life Technologies, Gaithersburg, Md.) containing a 5 mM KCl concentration.
Cell survival and growth in culture were observed 24 hours after addition of the substances to the medium, on 35 mm disks in contact with 10 ng/ml of fluorescein acetate according to the technique described by Jones (Jones K. H., J. Histochem. Cytochem., 33, 77, 1985). The cell count was done with a fluorescence microscope.

[6] = test system: tibial nerve after cutting the sciatic nerve in diabetic rats; assay: Sciatic nerve regeneration test in diabetic rats (alloxan, cut sciatic nerve); type: in vivo, rat; settings: thirty days after cutting the sciatic nerve, diet 200 mg/kg acetyl L-carnitine or carnitine mixture, 50 mg/kg α-lipoic acid
Experimental: The technique used in these tests is the one described by Fernandez (Fernandez E., Int. J. Clin. Pharmacol. Res., 10, 85, 1990).
Diabetes (serum glucose above 450 mg/dl) was induced in a group of rats by subcutaneous injection of 100 mg/kg of alloxan. […] The compounds were administered a week before cutting the sciatic nerve and for thirty days after cutting.
The sciatic nerve was cut under anaesthesia and after exposing 1 cm of it at the level of the sciatic foramen. The border of the lesion was marked with an epineural suture. Thirty days after cutting the nerve, the tissue of the tibial nerve, one of the main divisions of the sciatic nerve, was examined, after sacrificing the animals. Four cross-sections of the tibial nerve measuring approximately 4 mm in length were thus subjected to morphological and morphometric examination by means of a semiautomatic image analyser (Zeiss Videoplan Image Analyser).
The number of regenerating axons and their density per […] were counted, as well as the degenerate elements.

[7] = test system: neuromuscular conduction in diabetic rats; assay: Neuromuscular conduction test in the diabetic rat (streptozotocin); type: in vivo; settings: after 4 weeks
Experimental: In these tests, we induced experimental diabetes in rats by intravenously injecting the experimental animals (rats with a mean weight of 300 g) with 50 mg/kg of streptozotocin. In the animals with induced diabetes (serum glucose above 450 mg/dl) the neuromuscular conduction velocity (NMCN7) was measured. To this end, the sciatic nerve was isolated (2 cm length) and the soleus muscle was separated from the gastrocnemius and its distal tendon cut and connected up to an isometric transducer which recorded the muscular contraction force (MCF). The muscle was stimulated via the sciatic nerve by means of two electrodes inserted at a distance of 10 mm from the nerve and connected up to a stimulator.
A bipolar electrode was placed in the distal end of the muscle for displaying the electromyogram via an oscilloscope.
The NMCV was measured in m/sec, dividing the distance between the stimulation electrodes by the mean difference in latency between the start of the […] potentials evoked in the two sites. The MCF was expressed in mm.

wobbler mice = assay: Motor co-ordination abnormality test in wobbler mice; type: in vivo; settings: oral twenty days; for percentage increase in running time: acetyl L-carnitine 200 mg/kg, carnitine mixture 200 mg/kg, α-lipoic acid 50 mg/kg, time to run 10 cm; for holding time on the edge of an inclined platform (in words): versus controls
Experimental: These tests were conducted in “wobbler mice”, that is to say animals that present an unsteady, staggering gait, an abnormal position of the paws and a reduced speed of movement. These abnormalities are related to progressive atrophy of the motoneurons and musculo-cutaneous nerve fibres, particularly as affecting the anterior limbs. The tests were conducted according to the procedure proposed by Mitsumoto (Mitsumoto H., Annal. Neurol., 36, 14, 1994). […] The examination was performed by evaluating, in the treated animals versus controls, the time that each animal holds on to the edge of an inclined platform (holding time) and also the time it takes to run a distance of 10 cm (running time).

[8] = test system: proprioceptive sensory perception abnormalities induced by cisplatin; assay: Cisplatin-induced sensory neuronal lesions (rotarod test); type: in vivo; settings: mouse rotarod; cisplatin 10 mg/kg s.c. seven days; oral seven days acetyl L-carnitine 300 mg/kg, carnitine mixture 300 mg/kg, α-lipoic acid 50 mg/kg
Experimental: The proprioceptive sensory perception abnormalities induced by cisplatin in the mouse were evaluated by means of the rotarod test (Apfel, S. C., Ann. Neurol., 29, 89, 1991).

With CC(=O)O[C@H](CC(=O)[O-])C[N+](C)(C)C [Acetyl L-carnitine, acetyl L-carnitine] the “amount administered orally without any of the animals dying” value ([1]; oral) was “more than 500 mg/kg”, the “amount administered parenterally without any of the animals dying” value ([1]; parenteral) was “more than 250 mg/kg” and the “Extent of ischaemia (volume in mm^3) due to occlusion of the MCA, Volume” value [2] was 25.6 ± 1.5 mm^3. The “Serum glucose, Initial” value [3] was 509.5 ± 28 mg/dL, the “Serum glucose, After 21 days” value [3] was 405.9 ± 25 mg/dL and the “Sorbitol, Lens” value [4] was 32.7 ± 2.5 nmol/mg. For the same compound, the “Sorbitol, Sciatic nerve” value [4] was 1.15 ± 0.11 nmol/mg, the “Cell growth (% vs controls)” value [5] was 5 ± 0.51 % vs controls and the “Density of tibial nerve degenerate elements (per 100 nm^2)” value [6] was 0.16 ± 0.02 per 100 nm^2. For the same compound, the “Number of tibial nerve degenerate elements” value [6] was 560 ± 61, the “MCF (muscular contraction force)” value [7] was 40.6 ± 3.4 mm and the “NMCV (neuromuscular conduction velocity)” value [7] was 38.5 ± 1.9 m/sec. The “percentage increase in running time” value (wobbler mice) was 35 ± 3.2%, the “holding time on the edge of an inclined platform (in words)” value (wobbler mice) was “improves” and the “Equilibrium time” value [8] was 9.5 ± 0.6 s.
In the case of N.N.[Cl][Pt][Cl] [Cisplatin, cisplatin], the “Equilibrium time” value [8] was 8.4 ± 0.8 s.
For O=C(O)CCCCC1CCSS1 (stereo not drawn) [α-lipoic acid], the “Extent of ischaemia (volume in mm^3) due to occlusion of the MCA, Volume” value [2] was 34.5 ± 2.1 mm^3, the “Serum glucose, Initial” value [3] was 502.8 ± 36 mg/dL and the “Serum glucose, After 21 days” value [3] was 360.4 ± 30 mg/dL. For the same compound, the “Sorbitol, Lens” value [4] was 30.8 ± 3.2 nmol/mg, the “Sorbitol, Sciatic nerve” value [4] was 1.08 ± 0.10 nmol/mg and the “Cell growth (% vs controls)” value [5] was 5 ± 0.39 % vs controls. The “Density of tibial nerve degenerate elements (per 100 nm^2)” value [6] was 0.20 ± 0.04 per 100 nm^2, the “Number of tibial nerve degenerate elements” value [6] was 590 ± 0.70 and the “MCF (muscular contraction force)” value [7] was 41.9 ± 3.3 mm. The “NMCV (neuromuscular conduction velocity)” value [7] was 40.1 ± 1.5 m/sec, the “percentage increase in running time” value (wobbler mice) was 40 ± 3.9% and the “holding time on the edge of an inclined platform (in words)” value (wobbler mice) was “improves”. The “Equilibrium time” value [8] was 9.9 ± 0.8 s.
For “IGF-I: insulin-like growth factor, a peptide of the proinsulin group (somatomedins)”, the “Cell growth (% vs controls)” value [5] was 45 ± 2.8 % vs controls.
